The source of these data is paper PMC11117721, “A Fast-Binding, Functionally Reversible, COX-2 Radiotracer for CNS PET Imaging” (ACS Central Science, 2024).

Converted amounts (≈) assume the structure as drawn. “And” between values parts separate entries of the source, which are not always exact repeats. Equal entries are not always repeated.

Data set [1] has as its target P-gp (Homo sapiens, UniProt P08183). In words: Efflux ratio (ER) / P-gp efflux. It counts as in vitro ADME. The conditions noted are these: for ER: efflux ratio.
Data set [2] can be described thus: Permeability (Papp). It counts as in vitro ADME. The conditions noted are these: not told.
Data set [3] can be described thus: Plasma protein binding (fraction unbound in plasma, Fup). The format is in vitro ADME, mouse. The conditions noted are these: for Fup: as fraction, plasma protein binding; for Fup (mouse, %): mouse plasma. From the text:
(§1) To select the best starting point for COX-2 radiotracer development, we extensively profiled a large set of known COX-2 selective inhibitors. Our primary focus was to identify a ligand with high binding affinity, COX-2 selectivity over COX-1, fast on-rate binding kinetics and improved free fraction in plasma to maximize the signal-to-noise ratio in PET imaging experiments. […] To anticipate fast washout pharmacokinetics in vivo, we utilized simple plasma and brain protein binding assays to maximize the unbound fraction.

Data set [4] deals with T1, COX-2 (Homo sapiens, UniProt P35354).
T1 sequence (P35354 18-604): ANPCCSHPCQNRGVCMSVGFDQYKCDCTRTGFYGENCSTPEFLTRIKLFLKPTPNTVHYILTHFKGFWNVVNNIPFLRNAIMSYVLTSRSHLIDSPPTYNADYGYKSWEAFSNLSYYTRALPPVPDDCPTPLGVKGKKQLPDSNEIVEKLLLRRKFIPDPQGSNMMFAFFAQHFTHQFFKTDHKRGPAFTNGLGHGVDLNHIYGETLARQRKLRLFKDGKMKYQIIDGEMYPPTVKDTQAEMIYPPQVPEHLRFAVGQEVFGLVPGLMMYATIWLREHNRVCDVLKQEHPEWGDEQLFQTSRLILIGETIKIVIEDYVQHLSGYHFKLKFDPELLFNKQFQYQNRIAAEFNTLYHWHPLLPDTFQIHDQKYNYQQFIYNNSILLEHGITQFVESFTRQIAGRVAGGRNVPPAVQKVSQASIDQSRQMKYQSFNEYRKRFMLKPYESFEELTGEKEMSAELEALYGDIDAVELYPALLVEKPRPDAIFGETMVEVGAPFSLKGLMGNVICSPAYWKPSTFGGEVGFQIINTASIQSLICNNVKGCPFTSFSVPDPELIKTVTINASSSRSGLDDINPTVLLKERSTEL
As to the kind of experiment: LCMS-based biochemical COX-2 assay (arachidonic acid to PGE2), short 2 min enzyme-inhibitor incubation. The conditions noted are these: COX2 IC50 (nM, 2 min), LCMS readout. From the text:
To anticipate fast washout pharmacokinetics in vivo, we utilized simple plasma and brain protein binding assays to maximize the unbound fraction. […] Previous COX-2 discovery relied on whole blood assays to measure COX-2 inhibition. Focusing on fast-binding inhibitors, we prioritized SAR derived from a rapid inhibition LCMS-based enzymatic assay.

Data set [5] addresses T1, COX-2. In words: Lipophilic ligand efficiency (LLE).
Data set [6] in a line: Brain protein binding (fraction unbound in brain, Fub). It counts as in vitro ADME.
Description: as §1

Data set [7] can be described thus: Aqueous solubility in PBS. It counts as physicochemical. The note with it: aqueous buffer, read-out: Aq. Sol. (PBS).
The subject of data set [8] is COX-2. The arrangement: method as in earlier work. The conditions noted are these: human brain PET; cited from earlier work.

Chain of P-gp (P08183 whole entry): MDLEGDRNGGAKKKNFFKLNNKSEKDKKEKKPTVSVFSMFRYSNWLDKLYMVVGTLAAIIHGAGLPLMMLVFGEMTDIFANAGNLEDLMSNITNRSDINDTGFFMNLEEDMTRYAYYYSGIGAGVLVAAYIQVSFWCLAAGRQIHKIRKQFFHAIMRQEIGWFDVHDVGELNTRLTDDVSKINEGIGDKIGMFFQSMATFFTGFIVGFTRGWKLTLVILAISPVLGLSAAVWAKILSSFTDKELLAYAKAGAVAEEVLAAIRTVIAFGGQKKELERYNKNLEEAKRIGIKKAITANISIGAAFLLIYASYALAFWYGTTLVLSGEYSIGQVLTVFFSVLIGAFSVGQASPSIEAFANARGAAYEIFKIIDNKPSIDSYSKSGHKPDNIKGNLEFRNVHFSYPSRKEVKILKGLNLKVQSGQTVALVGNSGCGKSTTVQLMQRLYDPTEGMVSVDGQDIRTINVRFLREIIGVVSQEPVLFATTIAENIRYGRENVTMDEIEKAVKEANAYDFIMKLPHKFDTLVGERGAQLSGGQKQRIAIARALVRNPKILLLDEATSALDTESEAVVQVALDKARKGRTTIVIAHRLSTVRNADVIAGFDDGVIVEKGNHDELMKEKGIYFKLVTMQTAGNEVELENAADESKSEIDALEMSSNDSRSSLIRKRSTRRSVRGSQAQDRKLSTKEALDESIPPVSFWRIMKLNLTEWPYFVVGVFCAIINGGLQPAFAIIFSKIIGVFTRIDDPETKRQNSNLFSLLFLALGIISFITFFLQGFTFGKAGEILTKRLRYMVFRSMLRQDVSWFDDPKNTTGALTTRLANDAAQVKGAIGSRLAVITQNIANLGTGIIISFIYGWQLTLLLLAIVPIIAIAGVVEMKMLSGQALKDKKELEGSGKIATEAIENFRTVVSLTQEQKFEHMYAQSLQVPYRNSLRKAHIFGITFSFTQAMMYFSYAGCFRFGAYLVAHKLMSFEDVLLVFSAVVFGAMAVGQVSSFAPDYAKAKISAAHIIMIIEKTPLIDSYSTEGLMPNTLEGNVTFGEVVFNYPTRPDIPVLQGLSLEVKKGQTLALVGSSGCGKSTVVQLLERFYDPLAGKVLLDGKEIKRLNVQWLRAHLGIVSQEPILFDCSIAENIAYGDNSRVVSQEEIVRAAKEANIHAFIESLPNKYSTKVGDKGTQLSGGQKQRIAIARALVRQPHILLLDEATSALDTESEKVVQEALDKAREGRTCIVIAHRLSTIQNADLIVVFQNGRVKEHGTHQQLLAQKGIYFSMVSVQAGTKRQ

For `CS(=O)(=O)c1ccc(-c2cccc(NCc3ccoc3)n2)cc1` [BRD1158], the ER in data set [1] came out at 0.9. In data set [1] (result in words), the P-gp efflux result is given as “no P-gp efflux”. Also, the apparent permeability coefficient (Papp) – broadly, a coefficient for how fast a substance crosses the barrier – in data set [2] amounted to 50.8 ×10⁻⁶ cm/s. Moreover, the “fold improvement in plasma protein binding (PPB)” value in data set [3] (BRD1158 compared to MC1) is 4 fold. In addition, in data set [3], the Fup is given as 0.091 and the “Fup (mouse, %)” value came to 9.1%. The half-inhibitory concentration (IC50) – broadly, the concentration needed to halve the response being measured – in data set [4] is 24.6 nM and 25 nM. The compound further gave an LLE in data set [5] of 4.78. Further, the “Fub (mouse, %)” value in data set [6] amounted to 2.2%.

On to `CS(=O)(=O)c1ccc(-c2cccc(OCc3cccs3)n2)cc1` [BRD2369], for which the ER in data set [1] amounted to 0.9. In data set [2], this compound gave an apparent permeability (Papp) of 33.7 ×10⁻⁶ cm/s. In data set [3], the “Fup (mouse, %)” value is reported as 0.4%. In addition, the IC50 in data set [4] was 3.4 nM and 3 nM. This compound registered an LLE in data set [5] of 4.8. Besides, in data set [6], the “Fub (mouse, %)” value turned out to be 0%.

`COc1cc(NCc2cccs2)nc(-c2ccc(S(C)(=O)=O)cc2)n1` [MC1, reference compound]: in data set [2], the apparent permeability coefficient (Papp) amounted to 36.5 ×10⁻⁶ cm/s. In data set [3], the Fup was determined as 0.024 and the “Fup (mouse, %)” value stood at 2.4%. The solubility in data set [7] came to 3.4 µM (≈ 1.28 µg/mL). The “Fub (mouse, %)” value in data set [6] came to 0.75%.

In the case of `CS(=O)(=O)c1ccc(-c2nc(NCc3cccs3)cc(O[11CH3])n2)cc1` [[^11C]MC1], the “specific binding of the tracer (of the total uptake)” value in data set [8] is 10%–20%.
